The NIST ThermoML archive (doi:10.1021/je401036f)

Assay: xn = mol fraction of the nth substance listed
Conditions: 101 kPa, Liquid; for viscosity: Concentric cylinders viscometry; for mass density: Vibrating tube method

CC(O)CN (stereo not given) [1-amino-2-propanol] + CCC(C)O
Conditions | mass density [kg/m3] | viscosity [mPa·s]
288.15 K, x1 = 0.1003 | 823.697 | 5.068
288.15 K, x1 = 0.2005 | 837.759 | 5.97
288.15 K, x1 = 0.3 | 852.257 | 7.261
288.15 K, x1 = 0.3999 | 867.392 | 9.219
288.15 K, x1 = 0.5 | 882.695 | 11.68
288.15 K, x1 = 0.6001 | 898.243 | 14.95
288.15 K, x1 = 0.7 | 914.159 | 19.39
288.15 K, x1 = 0.8 | 930.494 | 25.16
288.15 K, x1 = 0.8999 | 947.198 | 32.94
288.15 K, x1 = 1 | 964.544 | 43.7
293.15 K, x1 = 0.1003 | 819.706 | 4.16
293.15 K, x1 = 0.2005 | 833.763 | 4.888
293.15 K, x1 = 0.3 | 848.265 | 5.949
293.15 K, x1 = 0.3999 | 863.403 | 7.373
293.15 K, x1 = 0.5 | 878.701 | 9.189
293.15 K, x1 = 0.6001 | 894.252 | 11.6
293.15 K, x1 = 0.7 | 910.183 | 14.8
293.15 K, x1 = 0.8 | 926.524 | 18.77
293.15 K, x1 = 0.8999 | 943.272 | 24.3
293.15 K, x1 = 1 | 960.598 | 31.68
298.15 K, x1 = 0.1003 | 815.665 | 3.45
298.15 K, x1 = 0.2005 | 829.72 | 4.048
298.15 K, x1 = 0.3 | 844.235 | 4.884
298.15 K, x1 = 0.3999 | 859.38 | 5.96
298.15 K, x1 = 0.5 | 874.691 | 7.338
298.15 K, x1 = 0.6001 | 890.255 | 9.121
298.15 K, x1 = 0.7 | 906.21 | 11.45
298.15 K, x1 = 0.8 | 922.526 | 14.41
298.15 K, x1 = 0.8999 | 939.29 | 18.35
298.15 K, x1 = 1 | 956.618 | 23.54
303.15 K, x1 = 0.1003 | 811.527 | 2.889
303.15 K, x1 = 0.2005 | 825.623 | 3.378
303.15 K, x1 = 0.3 | 840.158 | 4.059
303.15 K, x1 = 0.3999 | 855.316 | 4.898
303.15 K, x1 = 0.5 | 870.629 | 5.963
303.15 K, x1 = 0.6001 | 886.197 | 7.316
303.15 K, x1 = 0.7 | 902.141 | 9.136
303.15 K, x1 = 0.8 | 918.502 | 11.31
303.15 K, x1 = 0.8999 | 935.275 | 14.16
303.15 K, x1 = 1 | 952.612 | 17.89
308.15 K, x1 = 0.1003 | 807.298 | 2.444
308.15 K, x1 = 0.2005 | 821.466 | 2.86
308.15 K, x1 = 0.3 | 836.03 | 3.407
308.15 K, x1 = 0.3999 | 851.209 | 4.08
308.15 K, x1 = 0.5 | 866.532 | 4.929
308.15 K, x1 = 0.6001 | 882.111 | 5.962
308.15 K, x1 = 0.7 | 898.074 | 7.358
308.15 K, x1 = 0.8 | 914.445 | 9.005
308.15 K, x1 = 0.8999 | 931.229 | 11.12
308.15 K, x1 = 1 | 948.577 | 13.88
313.15 K, x1 = 0.1003 | 803.008 | 2.083
313.15 K, x1 = 0.2005 | 817.246 | 2.436
313.15 K, x1 = 0.3 | 831.847 | 2.887
313.15 K, x1 = 0.3999 | 847.055 | 3.435
313.15 K, x1 = 0.5 | 862.397 | 4.114
313.15 K, x1 = 0.6001 | 877.993 | 4.924
313.15 K, x1 = 0.7 | 893.97 | 6.014
313.15 K, x1 = 0.8 | 910.355 | 7.28
313.15 K, x1 = 0.8999 | 927.181 | 8.894
313.15 K, x1 = 1 | 944.515 | 10.96
318.15 K, x1 = 0.1003 | 798.619 | 1.795
318.15 K, x1 = 0.2005 | 812.957 | 2.094
318.15 K, x1 = 0.3 | 827.606 | 2.466
318.15 K, x1 = 0.3999 | 842.848 | 2.917
318.15 K, x1 = 0.5 | 858.232 | 3.47
318.15 K, x1 = 0.6001 | 873.856 | 4.113
318.15 K, x1 = 0.7 | 889.829 | 4.982
318.15 K, x1 = 0.8 | 906.227 | 5.972
318.15 K, x1 = 0.8999 | 923.11 | 7.219
318.15 K, x1 = 1 | 940.423 | 8.798
323.15 K, x1 = 0.1003 | 794.161 | 1.556
323.15 K, x1 = 0.2005 | 808.592 | 1.814
323.15 K, x1 = 0.3 | 823.3 | 2.124
323.15 K, x1 = 0.3999 | 838.586 | 2.499
323.15 K, x1 = 0.5 | 853.992 | 2.954
323.15 K, x1 = 0.6001 | 869.642 | 3.477
323.15 K, x1 = 0.7 | 885.646 | 4.164
323.15 K, x1 = 0.8 | 902.064 | 4.955
323.15 K, x1 = 0.8999 | 918.943 | 5.938
323.15 K, x1 = 1 | 936.293 | 7.166
328.15 K, x1 = 0.1003 | 789.608 | 1.358
328.15 K, x1 = 0.2005 | 804.15 | 1.576
328.15 K, x1 = 0.3 | 818.925 | 1.845
328.15 K, x1 = 0.3999 | 834.264 | 2.154
328.15 K, x1 = 0.5 | 849.702 | 2.529
328.15 K, x1 = 0.6001 | 865.379 | 2.969
328.15 K, x1 = 0.7 | 881.417 | 3.521
328.15 K, x1 = 0.8 | 897.859 | 4.163
328.15 K, x1 = 0.8999 | 914.764 | 4.947
328.15 K, x1 = 1 | 932.13 | 5.915
333.15 K, x1 = 0.1003 | 784.956 | 1.211
333.15 K, x1 = 0.2005 | 799.616 | 1.398
333.15 K, x1 = 0.3 | 814.474 | 1.637
333.15 K, x1 = 0.3999 | 829.873 | 1.897
333.15 K, x1 = 0.5 | 845.357 | 2.212
333.15 K, x1 = 0.6001 | 861.071 | 2.59
333.15 K, x1 = 0.7 | 877.143 | 3.042
333.15 K, x1 = 0.8 | 893.609 | 3.571
333.15 K, x1 = 0.8999 | 910.537 | 4.21
333.15 K, x1 = 1 | 927.93 | 4.986
